Measurements as given in patent US8354436B2 (4SC Discovery GmbH, priority 2011, dated 2013).
Like-named read-outs stand apart in the source and are kept apart here.

Assays:
Type in all cases: cell-based
Details in all cases: 48 hours
[1] = tested on: IFN-γ; assay: IFN-γ production by PHA-stimulated human PBMC (OptEIA human IFN-g ELISA)
In short: (§1)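 Compounds are titrated semilogarithmically for IC50, or tested at 10, 1, 0.1 and 0.01 μM for screening, on healthy-donor PBMC activated with 2 μg/ml PHA. After 48 h, secreted cytokine is measured in supernatant.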

[2] = tested on: IL-17FF; assay: IL-17FF production by PHA-stimulated human PBMC (human IL-17F ELI-Pair)
In short: as §1

[3] = tested on: IL-17AA; assay: IL-17AA production by PHA-stimulated human PBMC (human homodimer IL-17A ELISA)
Description: Analysis of Proliferation of and Cytokine Production by Human PBMC Stimulated with PHA
Peripheral blood mononuclear cells (PBMC) from healthy human donors were purified using Accuspin™ System-Histopaque-1077 (Sigma) according to the protocol recommended by the manufacturer. Purified PBMC were then washed twice with phosphate-buffered saline (PBS) and resuspended in RPMI1640 culture medium supplemented with 10% dialyzed heat inactivated fetal calf serum, 1.5 mM L-glutamine, 100 U penicillin/ml, and […] (all from PAN Biotech, Aidenbach, Germany). For stimulation, PBMC were seeded at 1×10^5 cells/well, activated with 2 μg/ml phytohaemagglutinin (PHA, Sigma) and incubated with the test compounds for 48 hours. IL-17A, IL-17F and INF-γ were then determined in the culture supernatant using a Luminex BioPlex system, following the manufacturer's instructions (BioRad, Munich, Germany). For screening, compounds were used at 10, 1, 0.1 and 0.01 μM. To determine the IC50, compounds were titrated semilogarithmically.
Cytokines were determined in the aforementioned culture supernatant using the following methods: IL-17AA/AF was measured using the Luminex BioPlex system (BioRad, Munich, Germany); IL-17AA using the human homodimer IL-17A ELISA Ready Set Go Kit from eBioscience (Frankfurt, Germany); IL-17FF using the human IL-17F ELI-Pair from Hölzel DiagnosticaGmBH (Köln, Germany); and IFN-γ using the OptEIA human IFN-g ELISA from BD Bioscience (Heidelberg, Germany), all following the manufacturer's instructions.

[4] = tested on: PBMC from healthy human donors; assay: T cell proliferation assay (PHA-stimulated human PBMC, BrdU ELISA)
In short: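 Healthy-donor PBMC isolated on Ficoll, seeded at 1×10⁵ cells/well in RPMI with 10% dialysed FCS, stimulated with 2 μg/ml PHA in presence of test compound. Proliferation read after 48 hours by BrdU-incorporation ELISA.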

[5] = human PBMC, 2 μg/ml PHA, read-out: C: IC50 (IFNγ)
[6] = human PBMC, 2 μg/ml PHA, read-out: B: IC50 (IL-17FF)
[7] = human PBMC, 2 μg/ml PHA, read-out: A: IC50 (IL-17AA)
[8] = human PBMC, 2 μg/ml PHA, read-out: D: IC50 (Tcell proliferation)
[9] = PHA-stimulated human PBMC, column C, read-out: IC50 (IFNγ)
[10] = PHA-stimulated human PBMC, column B, read-out: IC50 (IL-17FF)
[11] = PHA-stimulated human PBMC, column A, values without *, read-out: IC50 (IL-17AA)
[12] = PHA-stimulated human PBMC, column D, read-out: IC50 (Tcell proliferation)

Fc1ccccc1-n1ncc(-c2onc(-c3c(F)cccc3Cl)c2-c2ccoc2)c1C(F)(F)F [Example B-9, 3-(2-chloro-6-fluorophenyl)-5-(1-(2-fluorophenyl)-5-(trifluoromethyl)-1H-pyrazol-4-yl)-4-(furan-3-yl)isoxazole]
IC50 [1, 5]: 100 to 1000 nM
IC50 [2, 6]: 10 to 100 nM
IC50 [3, 7]: 100 to 1000 nM
IC50 [4, 8]: 100 to 1000 nM

COC(=O)c1csc(-c2c(-c3c(F)cccc3Cl)noc2-c2cnn(-c3cccc(F)c3)c2C(F)(F)F)n1 [Example B-2, methyl 2-(3-(2-chloro-6-fluorophenyl)-5-(1-(3-fluorophenyl)-5-(trifluoromethyl)-1H-pyrazol-4-yl)isoxazol-4-yl)thiazole-4-carboxylate]
IC50 [1, 5]: 10 to 100 nM
IC50 [2, 6]: 10 to 100 nM
IC50 [3, 7]: 100 to 1000 nM
IC50 [4, 8]: 100 to 1000 nM

CON(C)C(=O)c1c(-c2c(F)cccc2Cl)noc1-c1cnn(-c2cccc(Cl)c2)c1C(F)(F)F [Example I-63, 3-(2-chloro-6-fluorophenyl)-5-(1-(3-chlorophenyl)-5-(trifluoromethyl)-1H-pyrazol-4-yl)-N-methoxy-N-methylisoxazole-4-carboxamide]
IC50 [1, 9]: 100 to 1000 nM
IC50 [2, 10]: 10 to 100 nM
IC50 [3, 11]: 100 to 1000 nM
IC50 [4, 12]: 100 to 1000 nM

CCOC(=O)c1c(-c2c(F)cccc2Cl)noc1-c1cnn(-c2cccc(NC(C)=O)c2)c1C(F)(F)F [IB-70, ethyl 5-(1-(3-acetamidophenyl)-5-(trifluoromethyl)-1H-pyrazol-4-yl)-3-(2-chloro-6-fluorophenyl)isoxazole-4-carboxylate]
IC50 [1, 9]: 10 to 100 nM
IC50 [2, 10]: 10 to 100 nM
IC50 [3, 11]: 10 to 100 nM
IC50 [4, 12]: 10 to 100 nM

COC(=O)c1c(-c2c(F)cccc2Cl)noc1-c1cnn(-c2cccc(C#N)c2)c1C(F)(F)F [Example I-12, methyl 3-(2-chloro-6-fluorophenyl)-5-(1-(3-cyanophenyl)-5-(trifluoromethyl)-1H-pyrazol-4-yl)isoxazole-4-carboxylate]
IC50 [1, 9]: 10 to 100 nM
IC50 [2, 10]: 10 to 100 nM
IC50 [3, 11]: 100 to 1000 nM
IC50 [4, 12]: 10 to 100 nM

COC(=O)c1c(-c2c(F)cccc2Cl)noc1-c1cnn(-c2cccc(Cl)c2)c1C(F)(F)F [Example I-11, methyl 3-(2-chloro-6-fluorophenyl)-5-(1-(3-chlorophenyl)-5-(trifluoromethyl)-1H-pyrazol-4-yl)isoxazole-4-carboxylate]
IC50 [1, 9]: < 10 nM
IC50 [2, 10]: < 10 nM
IC50 [3, 11]: < 10 nM
IC50 [4, 12]: < 10 nM

CNC(=O)c1c(-c2c(F)cccc2Cl)noc1-c1cnn(-c2cccc(Cl)c2)c1C(F)(F)F [Example I-32, 3-(2-chloro-6-fluorophenyl)-5-(1-(3-chlorophenyl)-5-(trifluoromethyl)-1H-pyrazol-4-yl)-N-methylisoxazole-4-carboxamide]
IC50 [1, 9]: 100 to 1000 nM
IC50 [2, 10]: 10 to 100 nM
IC50 [3, 11]: 100 to 1000 nM
IC50 [4, 12]: 10 to 100 nM

Fc1cccc(-n2ncc(-c3onc(-c4c(F)cccc4Cl)c3-c3ccoc3)c2C(F)(F)F)c1 [Example 13, 3-(2-chloro-6-fluorophenyl)-5-(1-(3-fluorophenyl)-5-(trifluoromethyl)-1H-pyrazol-4-yl)-4-(furan-3-yl)isoxazole]
IC50 [1, 5]: 1000 to 10000 nM
IC50 [2, 6]: 100 to 1000 nM
IC50 [3, 7]: 1000 to 10000 nM
IC50 [4, 8]: 1000 to 10000 nM

CNC(=O)c1c(-c2c(F)cccc2Cl)noc1-c1cnn(-c2ccccc2F)c1C(F)(F)F [Example I-19, 3-(2-chloro-6-fluorophenyl)-5-(1-(2-fluorophenyl)-5-(trifluoromethyl)-1H-pyrazol-4-yl)-N-methylisoxazole-4-carboxamide]
IC50 [1, 9]: 1000 to 10000 nM
IC50 [2, 10]: 1000 to 10000 nM
IC50 [3, 11]: 1000 to 10000 nM
IC50 [4, 12]: 1000 to 10000 nM

COC(=O)c1c(-c2c(F)cccc2Cl)noc1-c1cnn(-c2ccccc2)c1C(F)(F)F [Example I-48, methyl 3-(2-chloro-6-fluorophenyl)-5-(1-phenyl-5-(trifluomethyl)1H-pyrazol-4-yl)isoxazole-4-carboxylate]
IC50 [1, 9]: 10 to 100 nM
IC50 [2, 10]: 10 to 100 nM
IC50 [3, 11]: 100 to 1000 nM
IC50 [4, 12]: 10 to 100 nM

Cc1nnc(-c2c(-c3c(F)cccc3Cl)noc2-c2cnn(-c3ccccc3F)c2C(F)(F)F)s1 [Example 12, 3-(2-chloro-6-fluorophenyl)-5-(1-(2-fluorophenyl)-5-(trifluoromethyl)-1H-pyrazol-4-yl)-4-(5-methyl-1,3,4-thiadiazol-2-yl)isoxazole]
IC50 [1, 5]: 10 to 100 nM
IC50 [2, 6]: 10 to 100 nM
IC50 [3, 7]: 100 to 1000 nM
IC50 [4, 8]: 100 to 1000 nM

Cc1nnc(-c2c(-c3c(F)cccc3Cl)noc2-c2cnn(-c3ccccc3F)c2C(F)(F)F)o1 [Example 11, 2-(3-(2-chloro-6-fluorophenyl)-5-(1-(2-fluorophenyl)-5-(trifluoromethyl)-1H-pyrazol-4-yl)isoxazol-4-yl)-5-methyl-1,3,4-oxadiazole]
IC50 [1, 5]: 10 to 100 nM
IC50 [2, 6]: 100 to 1000 nM
IC50 [3, 7]: 1000 to 10000 nM
IC50 [4, 8]: 100 to 1000 nM

CNC(=O)c1c(-c2c(F)cccc2Cl)noc1-c1cnn(-c2ccc(F)cc2F)c1C(F)(F)F [Example I-57, 3-(2-chloro-6-fluorophenyl)-5-(1-(2,4-difluorophenyl)-5-(trifluoromethyl)-1H-pyrazol-4-yl)-N-methylisoxazole-4-carboxamide]
IC50 [1, 9]: 1000 to 10000 nM
IC50 [2, 10]: 1000 to 10000 nM
IC50 [3, 11]: 1000 to 10000 nM
IC50 [4, 12]: 1000 to 10000 nM

Fc1cccc(Cl)c1-c1noc(-c2cnn(-c3cccc(Cl)c3)c2C(F)(F)F)c1-c1nccs1 [Example 5, 3-(2-chloro-6-fluorophenyl)-5-(1-(3-chlorophenyl)-5-(trifluoromethyl)-1H-pyrazol-4-yl)-4-(thiazol-2-yl)isoxazole]
IC50 [1, 5]: < 10 nM
IC50 [2, 6]: < 10 nM
IC50 [3, 7]: < 10 nM
IC50 [4, 8]: < 10 nM

COC(=O)c1c(-c2c(F)cccc2Cl)noc1-c1cnn(-c2cccc(N)c2)c1C(F)(F)F [IB-92, methyl 5-(1-(3-aminophenyl)-5-(trifluoromethyl)-1H-pyrazol-4-yl)-3-(2-chloro-6-fluorophenyl)isoxazole-4-carboxylate]
IC50 [1, 9]: 10 to 100 nM
IC50 [2, 10]: 10 to 100 nM
IC50 [4, 12]: 10 to 100 nM

COC(=O)c1c(-c2c(F)cccc2Cl)noc1-c1cnn(-c2cc(F)cc(F)c2)c1C(F)(F)F [Example I-50, methyl 3-(2-chloro-6-fluorophenyl)-5-(1-(3,5-difluorophenyl)-5-(trifluoromethyl)-1H-pyrazol-4-yl)isoxazole-4-carboxylate]
IC50 [1, 9]: < 10 nM
IC50 [2, 10]: < 10 nM
IC50 [4, 12]: < 10 nM

CON(C)C(=O)c1c(-c2ccccc2Cl)noc1-c1cnn(-c2cccc(Cl)c2)c1C(F)(F)F [IB-64, 3-(2-chlorophenyl)-5-(1-(3-chlorophenyl)-5-(trifluoromethyl)-1H-pyrazol-4-yl)-N-methoxy-N-methylisoxazole-4-carboxamide]
IC50 [1, 9]: 100 to 1000 nM
IC50 [2, 10]: 10 to 100 nM
IC50 [4, 12]: 100 to 1000 nM

COC(=O)c1c(-c2c(F)cccc2Cl)noc1-c1cnn(-c2ccc(F)cc2)c1C(F)(F)F [Example I-3, methyl 3-(2-chloro-6-fluorophenyl)-5-(1-(4-fluorophenyl)-5-(trifluoromethyl)-1H-pyrazol-4-yl)isoxazole-4-carboxylate]
IC50 [1, 9]: < 10 nM
IC50 [2, 10]: < 10 nM
IC50 [4, 12]: 10 to 100 nM

O=C(NC1CCCCC1)c1c(-c2c(F)cccc2Cl)noc1-c1cnn(-c2ccccc2F)c1C(F)(F)F [Example I-18, 3-(2-chloro-6-fluorophenyl)-N-cyclohexyl-5-(1-(2-fluorophenyl)-5-(trifluoromethyl)-1H-pyrazol-4-yl)isoxazole-4-carboxamide]
IC50 [1, 9]: 100 to 1000 nM
IC50 [2, 10]: 100 to 1000 nM
IC50 [3, 11]: 1000 to 10000 nM
IC50 [4, 12]: 1000 to 10000 nM

Fc1cccc(Cl)c1-c1noc(-c2cnn(-c3ccccn3)c2C(F)(F)F)c1-c1nnco1 [Example B-25, 2-(3-(2-chloro-6-fluorophenyl)-5-(1-(pyridin-2-yl)-5-(trifluoromethyl)-1H-pyrazol-4-yl)isoxazol-4-yl)-1,3,4-oxadiazole]
IC50 [1, 5]: 10 to 100 nM
IC50 [2, 6]: 100 to 1000 nM
IC50 [4, 8]: 10 to 100 nM

CCOC(=O)c1c(-c2c(F)cccc2Cl)noc1-c1cnn(-c2ccncc2)c1C(F)(F)F [IB-38, ethyl 3-(2-chloro-6-fluorophenyl)-5-(1-(pyridin-4-yl)-5-(trifluoromethyl)-1H-pyrazol-4-yl)-isoxazole-4-carboxylate]
IC50 [1, 9]: < 10 nM
IC50 [2, 10]: < 10 nM
IC50 [4, 12]: < 10 nM
